Experimental data as given in patent publication US20150119378A1, “AZETIDINYLOXY-, PYRROLIDINYLOXY-, AND PIPERIDINYLOXY-SUBSTITUTED METANICOTINES AS NEURONAL NICOTINIC ACETYLCHOLINE RECEPTOR LIGANDS” (priority 2013, published 2015).
Where two headings read alike, the source gives them in different places.

Experiments:
Human α4β2 = target: T1, Human α4β2 (Homo sapiens, UniProt P17787+P43681); assay: Competition binding to receptors in membrane preparations, human α4β2 ([3H]-nicotine)
T1 construct: expressed in transfected cells; obtained from Dr. Ron Lukas, Barrow Neurological Institute
Procedure: (§1) SH-EP1/human α4β2 (Eaton et al., 2003), SH-EP1/human α4β4 (Gentry et al., 2003), SH-EP1/α6β3β4α5 (Grinevich et al., 2005), TE671/RD and SH-SY5Y cell lines (obtained from Dr. Ron Lukas, Barrow Neurological Institute) were maintained in proliferative growth phase in Dulbecco's modified Eagle's medium (Gibco/BRL) with 10% horse serum (Gibco BRL), 5% fetal bovine serum (HyClone, Logan Utah), 1 mM sodium pyruvate, 4 mM L-glutamine. For maintenance of stable transfectants, the α4β2 and α4β4 cell media was supplemented with 0.25 mg/mL zeocin and 0.13 mg/mL hygromycin B. Selection was maintained for the α6β3β4α5 cells with 0.25 mg/mL of zeocin, 0.13 mg/mL of hygromycin B, 0.4 mg/mL of geneticin, and 0.2 mg/mL of blasticidin. HEK/human α7/RIC3 cells (obtained from J. Lindstrom, U. Pennsylvania) were maintained in proliferative growth phase in Dulbecco's modified Eagle's medium (Gibco/BRL) with 10% fetal bovine serum (HyClone, Logan Utah), 1 mM sodium pyruvate, 4 mM L-glutamine, 0.4 mg/mL geneticin; 0.2 mg/ml hygromycin B.
(§2) Cells were harvested in ice-cold PBS, pH 7.4, then homogenized with a polytron (Brinkmann Instruments, Westbury, N.Y.). Homongenates were centrifuged at 40,000 g for 20 minutes (4° C.). The pellet was resuspended in PBS and protein concentration determined using the Pierce BCA Protein Assay kit (Pierce Biotechnology, Rockford, Ill.).
(§3) Binding to nicotinic receptors was assayed on membranes using standard methods adapted from published procedures (Lippiello and Fernandes, 1986; Davies et al., 1999). In brief, membranes were reconstituted from frozen stocks (approximately 0.2 mg protein) and incubated for 2 h on ice in […] assay buffer (PBS) in the presence of competitor compound (0.001 nM to […]) and radioligand. [^3H]-nicotine (L-(−)-[N-methyl-3H]-nicotine, 69.5 Ci/mmol, Perkin-Elmer Life Sciences) was used for human α4β2 binding studies. [^3H]-epibatidine (52 Ci/mmol, Perkin-Elmer Life Sciences) was used for binding studies at the other receptor subtypes. Incubation was terminated by rapid filtration on a multimanifold tissue harvester (Brandel, Gaithersburg, Md.) using GF/B filters presoaked in 0.33% polyethyleneimine (w/v) to reduce non-specific binding. Filters were washed 3 times and the radioactivity retained was determined by liquid scintillation counting.
(§4) Binding data were expressed as percent total control binding. Replicates for each point were averaged and plotted against the log of drug concentration. The IC50 (concentration of the compound that produces 50% inhibition of binding) was determined by least squares non-linear regression using GraphPad Prism software (GraphPAD, San Diego, Calif.). Ki was calculated using the Cheng-Prusoff equation (Cheng and Prusoff, 1973).

Human α7 nAChR = target: T2, Human α7 nAChR (Homo sapiens, UniProt P36544); assay: Competition binding to receptors in membrane preparations, human α7 ([3H]-epibatidine)
T2 construct: expressed in transfected cells; host or cells: HEK cells co-expressing RIC3 (from J. Lindstrom, U. Pennsylvania)
Procedure: as §1, §2, §3, §4

Human Ganglion = target: T3, Human Ganglion (Homo sapiens, UniProt P30926+P32297); assay: Competition binding to receptors in membrane preparations, human ganglion subtype ([3H]-epibatidine)
T3 construct: endogenous in cells
Procedure: as §1, §2, §3, §4

Rat Ganglion = Rat Ganglion (Rattus norvegicus, UniProt P04757+P12392); assay: Competition binding to receptors in membrane preparations, rat ganglion subtype ([3H]-epibatidine)
Procedure: as §3, §4

[1] = tested on: scopolamine induced deficit in mice; assay: Morris Water Maze, scopolamine-induced memory (spatial) deficit; assay type: in vivo, male CD-1 mice
Procedure: Compounds of the present invention were tested in the Morris Water Navigation Task to characterize the cognitive-enhancing properties, namely through a chemically-induced memory (spatial) deficit task in the mouse.
The animals were male CD-1 mice (Charles River, Raleigh, N.C., USA), with 25-30 g body weight range on receipt. Animals were stabilized for at least 5 days after delivery in plastic cages on alpha-dry bedding with free access to food and water.
Test Compound, (2S,4E)-N-methyl-5-(5-((3R)-1-(4,4,4-trifluorobutanoyl)pyrrolidin-3-yloxy)-6-chloro-3-pyridinyl)-4-penten-2-amine, or a pharmaceutically acceptable salt thereof, such as the hemi-galactarate, was dissolved in deionized water (salt/base ratio=1.25).
The treatment schedule included scopolamine (0.75 mg/kg; s.c.) administered 15 minutes before the first training session each training day in combination with Test Compound (0.3, 1, 3 mg/kg of base) administered i.g. 25 minutes before the first training session each training day.
Scopolamine (0.75 mg/kg; s.c.) alone was administered 15 minutes before the training session each training day.
Cognitive activity was evaluated using an acquisition procedure in the Morris water maze whereby animals are administered a cognitively impairing compound (scopolamine) alone or in combination with a Test Compound during training sessions on days 1-4. Performance is evaluated on day 5 during a probe trial without any drug on board.
Preliminary analysis used one-way analysis of variance followed by post-hoc t-tests (Dunnetts) where applicable.

[2] = tested on: memory (recognition) task in the rat; assay: Object recognition task (NOR); assay type: in vivo, male Sprague-Dawley rats
Procedure: The compounds of the present invention were assessed for cognitive enhancing properties in the object recognition task in rats. In more detail, the compounds of the present invention, specifically Test Compound, (2S,4E)-N-methyl-5-(5-((3R)-1-(4,4,4-trifluorobutanoyl)pyrrolidin-3-yloxy)-6-chloro-3-pyridinyl)-4-penten-2-amine, or a pharmaceutically acceptable salt thereof, such as the hemi-galactarate, were tested to characterize the cognitive-enhancing properties of in a memory (recognition) task in the rat following oral dosing. Reference is made, for example, to Ennaceur A., et al., (1988), A New One-Trial Test for Neurobiological Studies of Memory in Rats, Behavioral Brain Research, 31, pp. 47-59.
The animals used were male Sprague-Dawley rats (Charles River, Raleigh, N.C., USA), of 134-173 g body weight range on receipt. The animals were stabilized for at least 6 days after delivery in plastic cages on alpha-dry bedding with access to food and water (2 per cage).
The Test Compound was dissolved in deionized water. The treatment schedule was 0.001, 0.01 and 0.1 mg/kg of base (salt/base ratio=1.25; equivalent to […]) or vehicle was administered p.o. 6H before exploratory, acquisition, and recall object recognition trials. All treatments were separated by 24 h, however although the acclimation and acquisition trials were separated by 24 h, the recall trial occurred 30 h after the acquisition trial (i.e. 6 h after the third dose).
The method of evaluation included cognitive activity using the method of Luine et al. A statistical analysis was performed using parametric distribution (exploration time): Student's t-test; (% RI): Kruskall-Wallace One-way ANOVA on Ranks with Dunn's method for post-hoc analyses.

[3] = 0.3 mg/kg i.g. with scopolamine 0.75 mg/kg s.c., vs scopolamine alone, Dunnett's p<0.01

## CN[C@@H](C)C/C=C/c1cncc(O[C@H]2CCN(C(=O)CC3CCCC3)C2)c1
Human α4β2; read-out: Human α4β2 Ki
  Ki: 0.0086 µM
Human α7 nAChR
  Ki: 49 µM
Human Ganglion
  Ki: 26 µM
Rat Ganglion
  Ki: 11 µM

## CN[C@@H](C)C/C=C/c1cnc(Cl)c(O[C@H]2CCN(C(=O)CC3CCCC3)C2)c1
Human α4β2; read-out: Human α4β2 Ki
  Ki: 0.0061 µM
Human α7 nAChR
  Ki: 36 µM
Human Ganglion
  Ki: 2.5 µM
Rat Ganglion
  Ki: 4 µM

## CN[C@@H](C)C/C=C/c1cncc(O[C@H]2CCN(C(=O)CCC(F)(F)F)C2)c1
Human α4β2; read-out: Human α4β2 Ki
  Ki: 0.011 µM
Human α7 nAChR
  Ki: 49 µM
Human Ganglion
  Ki: 18 µM
Rat Ganglion
  Ki: 33 µM

## CN[C@@H](C)C/C=C/c1cncc(O[C@H]2CCN(C(=O)c3ccc(F)cc3)C2)c1
Human α4β2; read-out: Human α4β2 Ki
  Ki: 0.0052 µM
Human α7 nAChR
  Ki: 58 µM
Human Ganglion
  Ki: 14 µM
Rat Ganglion
  Ki: 190 µM

## CN[C@@H](C)C/C=C/c1cnc(Cl)c(O[C@H]2CCN(C(=O)c3ccc(F)cc3)C2)c1
Human α4β2; read-out: Human α4β2 Ki
  Ki: 0.0015 µM
Human α7 nAChR
  Ki: 98 µM
Human Ganglion
  Ki: 16 µM
Rat Ganglion
  Ki: 5.9 µM

## CN[C@@H](C)C/C=C/c1cncc(O[C@@H]2CCN(C(=O)C(C)C)C2)c1
Human α4β2; read-out: Human α4β2 Ki
  Ki: 0.009 µM
Human α7 nAChR
  Ki: 35 µM
Human Ganglion
  Ki: 11 µM
Rat Ganglion
  Ki: 50 µM

## CN[C@@H](C)C/C=C/c1cncc(O[C@@H]2CCN(C(=O)c3ccc(F)cc3F)C2)c1
Human α4β2; read-out: Human α4β2 Ki
  Ki: 0.0059 µM
Human α7 nAChR
  Ki: 41 µM
Human Ganglion
  Ki: 3 µM
Rat Ganglion
  Ki: 19 µM

## CN[C@@H](C)C/C=C/c1cncc(O[C@@H]2CCN(C(=O)C(C)(C)C)C2)c1
Human α4β2; read-out: Human α4β2 Ki
  Ki: 0.017 µM
Human α7 nAChR
  Ki: 51 µM
Human Ganglion
  Ki: 21 µM
Rat Ganglion
  Ki: 100 µM

## CN[C@@H](C)C/C=C/c1cncc(O[C@@H]2CCN(C(=O)C3CCC3)C2)c1
Human α4β2; read-out: Human α4β2 Ki
  Ki: 0.0061 µM
Human α7 nAChR
  Ki: 58 µM
Human Ganglion
  Ki: 26 µM
Rat Ganglion
  Ki: 45 µM

## CN[C@@H](C)C/C=C/c1cncc(O[C@@H]2CCN(C(=O)C3CCCC3)C2)c1
Human α4β2; read-out: Human α4β2 Ki
  Ki: 0.0074 µM
Human α7 nAChR
  Ki: 26 µM
Human Ganglion
  Ki: 14 µM
Rat Ganglion
  Ki: 28 µM

## CN[C@@H](C)C/C=C/c1cnc(Cl)c(O[C@@H]2CCN(C(=O)CCC(F)(F)F)C2)c1 [Test Compound, (2S,4E)-N-methyl-5-(5-((3R)-1-(4,4,4-trifluorobutanoyl)pyrrolidin-3-yloxy)-6-chloro-3-pyridinyl)-4-penten-2-amine]
[1]; [3]
  mean distance from the platform (proximity) in the probe trial: significantly improved performance
  time spent in the target quadrant in the probe trial: significantly improved performance
[1]; 3.0 mg/kg i.g. with scopolamine 0.75 mg/kg s.c., vs scopolamine alone, Dunnett's p<0.05
  time spent in the target quadrant in the probe trial: significantly improved performance
[1]; doses of 0.3 and 3.0 mg/kg, animals cognitively impaired by scopolamine
  spatial memory performance (summary): significantly improved spatial memory performance
[2]; 0.001, 0.01, 0.1 mg/kg p.o., rats
  overt behavioral side effects: No overt behavioral side effects were observed
[2]; all dose groups 0.001-0.1 mg/kg p.o., statistical significance at the two higher doses
  recognition index (% RI) compared to vehicle-treated group: improved
[2]; any dose (0.001, 0.01 or 0.1 mg/kg p.o.), recall 6 h after third daily dose
  time investigating object B (novel) versus object A (familiar): spent significantly (P<0.05) more time investigating object B (novel) than object A (familiar)
[2]; p.o., rats, non-parametric statistical analyses
  MED for % RI: 0.01 mg/kg
[2]; young rats, dose range of 0.01 to 0.1 mg/kg, strong trend at 0.001 mg/kg
  episodic memory, % RI (summary): facilitates episodic memory

## CN[C@@H](C)C/C=C/c1cnc(Cl)c(O[C@@H]2CCN(C(=O)CCC(F)(F)F)C2)c1 [drawing 62]
Human α4β2
  Ki: 0.0014 µM
Human α7 nAChR
  Ki: 55 µM
Human Ganglion
  Ki: 7.4 µM
Rat Ganglion
  Ki: 15 µM
